According to patent US6673749B1, “Use of phyllocladane diterpenoids for plant growth promotion and alleviation of growth retardant allelochemicals, and method therefor” (Council of Scientific and Industrial Research, priority 2002, dated 2004):

Legend:
Assay type in all cases: in vivo
Hordeum vulgare = assay: Seed germination and seedling shoot/root growth test in petridishes; conditions: control = 100%
Method in brief: (§1)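 Ten seeds per 9.0 cm dish on filter paper wetted with 0.1, 0.01 or 0.001 μM compound solution (ethanol or acetone cosolvent, matched in controls), in triplicate. Incubated 9 days at 25.0±1.0 °C, 90% humidity, 4 hr light/day. Germination and shoot and root length expressed relative to control taken as 100%.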

[1] = test system: Trigonella foenum-graecum; assay: as above; conditions: for Percent (%) germination of seeds in relation to control on 9th day after sowing / Percent (%) root growth of seedlings in relation to control on 9th day after sowing / Percent (%) shoot growth of seedlings in relation to control on 9th day after sowing: Trigonella foenum graecum, control = 100%
Method in brief: as §1

Triticum aestivum = assay: as above; conditions: control = 100%
Method in brief: as §1

Vigna radiata = assay: as above; conditions: Vigna radiata, control = 100%
Method in brief: as §1

Hibiscus sabdariffa [2] = assay: Seed germination and seedling growth, comparison with GA3 (Example 4)
Experimental: (§2) 100 ml stalk solutions of 0.1 μM concentration were prepared by dissolving required amounts of various test compounds (depending upon their molecular weights) in minimum amount of ethanol or acetone and adding distilled water. From this stalk solution, 0.01 μM and 0.001 μM concentrations were prepared. Calliterpenone and calliterpenone di acetate was dissolved in 2.0 ml absolute ethanol (Merc), while; calliterpenone monoacetate, isopropylideno calliterpenone and trihydroxy calliterpenone were dissolved in 2.0 ml spectral grade acetone (Ranbaxy). The respective control test solutions of distilled water of each concentration also contained equal amount of absolute ethanol or acetone. For an assay, 10 seeds were placed on Whatman filter paper (moistened with 5.0 ml of test solution in a 9.0 cm diameter petridish (in triplicate). The pteridishes were incubated for 9 days in a germinator, maintained at 25.0±1.0° C. with 90% humidity and 4 hr light/day. At the end of incubation, observations were recorded on the seedlings in terms of germination, shoot and root growth. The data on the length of shoot and root of seedlings and number of seeds germinated in different concentrations of compounds were compared with the control, which was taken as 100%. The data thus obtained were presented in Table-1.
(§3) Effect of calliterpenone and its derivatives on seed germination and seedling growth in Hibiscus sabdariffa and Sesbania cannabina were measured in the similar way as these were measured in Example-1.

Sesbania cannabina [3] = assay: as above
Experimental: as §2, §3

Hibiscus sabdariffa [4] = assay: Antagonistic effect with Artemisia annua seed extract on germination and seedling growth; conditions: A. annua seed extract (1.3 g seeds/100 ml) alone or mixed 1:1 with 0.01 μm compound, control = 100%
Experimental: (§4) On the other hand, it is evident from Exp. 1-4 that phyllocladane diterpenenoids have produced germination and growth promoting activities on various plant species. To find out the combined effect of A. annua extract and phyllocladane diterpenoides on the germination and seedling growth of different plant species, 1:1 ratio of these compounds and A.annua extract were tested in the present experiment. For this, Hibiscus sabdariffa and Sesbania cannabina seeds were germinated in A.annua seed extract and solutions prepared by mixing this extract with 0.01 μm calliterpenone and calliterpenone mono-acetate respectively (Table 7). For the preparation of A.annua extract, 1.3 g seeds were soaked in 100 ml of distilled water for 24 hrs for testing on H. sabdariffa. Since, at this concentration, seeds of this species have shown 69% mortality which may be taken as good indicator. This effect was also recorded in S.cannabina. Since, in this case, seeds were almost half in weight as compared to the seeds of H. sabdariffa, accordingly, 0.65 g A. annua seeds were soaked in 100 ml of distilled water for 24 hrs to produce identical constraints in S. cannabina. For control, seeds were germinated in distilled water and all the observations were compared with it. […] Therefore, calliterpenone and its derivatives can be used to nullify the effects of other growth retardants/allelochemicals in the fields for their reclamation.

Sesbania cannabina [5] = assay: as above; conditions: A. annua seed extract (0.65 g seeds/100 ml) alone or mixed 1:1 with 0.01 μm compound, control = 100%
Experimental: as §4

## CC(=O)OCC1(O)CC23CCC4C(C)(C)C(=O)CCC4(C)C2CCC1C3 (stereo not shown) [Calliterpenone Monoacetate, calliterpenone monoacetate]
Hordeum vulgare; 0.001 μM
  Percent (%) germination of seeds in relation to control on 9th day after sowing: 100%
  Percent (%) root growth of seedlings in relation to control on 9th day after sowing: 146%
  Percent (%) shoot growth of seedlings in relation to control on 9th day after sowing: 113%
Hordeum vulgare; 0.01 μM
  Percent (%) germination of seeds in relation to control on 9th day after sowing: 100%
  Percent (%) root growth of seedlings in relation to control on 9th day after sowing: 114%
  Percent (%) shoot growth of seedlings in relation to control on 9th day after sowing: 117%
Hordeum vulgare; 0.1 μM
  Percent (%) germination of seeds in relation to control on 9th day after sowing: 100%
  Percent (%) root growth of seedlings in relation to control on 9th day after sowing: 124%
  Percent (%) shoot growth of seedlings in relation to control on 9th day after sowing: 118%
[1]; 0.001 μM
  Percent (%) germination of seeds in relation to control on 9th day after sowing: 113%
  Percent (%) root growth of seedlings in relation to control on 9th day after sowing: 131%
  Percent (%) shoot growth of seedlings in relation to control on 9th day after sowing: 135%
[1]; 0.01 μM
  Percent (%) germination of seeds in relation to control on 9th day after sowing: 113%
  Percent (%) root growth of seedlings in relation to control on 9th day after sowing: 95%
  Percent (%) shoot growth of seedlings in relation to control on 9th day after sowing: 134%
[1]; 0.1 μM
  Percent (%) germination of seeds in relation to control on 9th day after sowing: 113%
  Percent (%) root growth of seedlings in relation to control on 9th day after sowing: 81%
  Percent (%) shoot growth of seedlings in relation to control on 9th day after sowing: 133%
[1]; Trigonella foenum-graceum, concentration not specified
  Seed germination as compared to 100% in control: 113%
Triticum aestivum; 0.001 μM
  Percent (%) germination of seeds in relation to control on 9th day after sowing: 100%
  Percent (%) root growth of seedlings in relation to control on 9th day after sowing: 145%
  Percent (%) shoot growth of seedlings in relation to control on 9th day after sowing: 106%
Triticum aestivum; 0.01 μM
  Percent (%) germination of seeds in relation to control on 9th day after sowing: 100%
  Percent (%) root growth of seedlings in relation to control on 9th day after sowing: 102%
  Percent (%) shoot growth of seedlings in relation to control on 9th day after sowing: 107%
Triticum aestivum; 0.1 μM
  Percent (%) germination of seeds in relation to control on 9th day after sowing: 100%
  Percent (%) root growth of seedlings in relation to control on 9th day after sowing: 88%
  Percent (%) shoot growth of seedlings in relation to control on 9th day after sowing: 109%
Vigna radiata; 0.001 μM
  Percent (%) germination of seeds in relation to control on 9th day after sowing: 100%
  Percent (%) root growth of seedlings in relation to control on 9th day after sowing: 104%
  Percent (%) shoot growth of seedlings in relation to control on 9th day after sowing: 138%
Vigna radiata; 0.01 μM
  Percent (%) germination of seeds in relation to control on 9th day after sowing: 150%
  Percent (%) root growth of seedlings in relation to control on 9th day after sowing: 85%
  Percent (%) shoot growth of seedlings in relation to control on 9th day after sowing: 130%
Vigna radiata; 0.1 μM
  Percent (%) germination of seeds in relation to control on 9th day after sowing: 200%
  Percent (%) root growth of seedlings in relation to control on 9th day after sowing: 67%
  Percent (%) shoot growth of seedlings in relation to control on 9th day after sowing: 123%
Hibiscus sabdariffa [2]
  Enhancement in germination (in words): did not produce any enhancement in germination
Hibiscus sabdariffa [2]; 0.001 μM
  Seed Ger.: 3
  Root Growth (mm) 3rd Day: 16.3 mm
  Shoot growth 3rd Day: 28.8
  Root Growth (mm) 6th Day: 19.3 mm
  Shoot growth 6th Day: 85.8
  Root Growth (mm) 9th Day: 24.8 mm
  Shoot growth 9th Day: 91.6
Hibiscus sabdariffa [2]; 0.01 μM
  Seed Ger.: 2
  Root Growth (mm) 3rd Day: 17.5 mm
  Shoot growth 3rd Day: 33.5
  Root Growth (mm) 6th Day: 18.3 mm
  Shoot growth 6th Day: 67.5
  Root Growth (mm) 9th Day: 21.3 mm
  Shoot growth 9th Day: 75.2
Hibiscus sabdariffa [2]; 0.1 μM
  Seed Ger.: 0
Sesbania cannabina [3]; 0.001 μM
  Root growth as compared to respective control: 114%
  Seed Ger.: 3
  Shoot growth as compared to respective control: 109%
  Root Growth (mm) 3rd Day: 40.0 mm
  Shoot growth 3rd Day: 44.0
  Root Growth (mm) 6th Day: 40.0 mm
  Shoot growth 6th Day: 110.0
Sesbania cannabina [3]; 0.001 μM, 9th day
  Root Growth (mm) 9th Day: 57.0 mm
  Root growth as compared to GA3 taken as 100%: 143%
  Shoot growth 9th Day: 120
Sesbania cannabina [3]; 0.01 μM
  Seed Ger.: 3
  Root Growth (mm) 3rd Day: 28.3 mm
  Shoot growth 3rd Day: 20.0
  Root Growth (mm) 6th Day: 28.4 mm
  Shoot growth 6th Day: 57.8
Sesbania cannabina [3]; 0.01 μM, 9th day
  Root Growth (mm) 9th Day: 45.1 mm
  Shoot growth 9th Day: 78.2
Sesbania cannabina [3]; 0.1 μM
  Seed Ger.: 2
  Root Growth (mm) 3rd Day: 5.5 mm
  Shoot growth 3rd Day: 11.0
  Root Growth (mm) 6th Day: 7.5 mm
  Shoot growth 6th Day: 50.0
Sesbania cannabina [3]; 0.1 μM, 9th day
  Root Growth (mm) 9th Day: 23.0 mm
  Shoot growth 9th Day: 66.0
Sesbania cannabina [3]; concentration not given
  Germination as compared to GA3 treatments: 150%
  Germination as compared to its control: 150%
Hibiscus sabdariffa [4]
  Percent (%) germination in relation to control on the 9th day after sowing: completely checked the inhibitory effect
  Percent (%) seedling growth, Root, in relation to control on the 9th day after sowing: 172%
  Percent (%) seedling growth, Stem, in relation to control on the 9th day after sowing: 169%
Sesbania cannabina [5]
  Percent (%) germination in relation to control on the 9th day after sowing: completely checked the inhibitory effect
  Percent (%) seedling growth, Root, in relation to control on the 9th day after sowing: 175%
  Percent (%) seedling growth, Stem, in relation to control on the 9th day after sowing: 175%
